The results in this text go back to a melting point compilation (Tetko et al.; mined from patent text by program, amines drawn as free bases though some values may be those of a salt).

Bounds are passed on as bounds.

One may read the melting point as the temperature, or range, at which the solid turns liquid.

`Cc1cccc2c1nc(-c1ccccc1F)n2CC(O)C(C)(C)C` (configuration not stated) had a melting point of 178 to 179 °C.

`COc1cc(C=O)c(Br)c(OC)c1OC`: the melting point was 69 °C.

With `Cc1cc2c(cc1C#Cc1ccc(C(=O)O)cc1)C(C)(C)CCC2`, the melting point was 203 to 206 °C.

With `Cc1sc(N)c(C(=O)c2ccc(Cl)cc2)c1C`, the melting point lay in the range of 122 to 123 °C.

Consider `Cc1cc(NC(C)(C)C)nc(NC(C)(C)C)c1C#N`, for which the melting point was 134 to 138 °C.

Consider `O[C@@H]1CN=C(c2cccc(Cl)c2)O[C@H]1c1ccccc1` (racemic), for which the melting point amounted to 100 °C.

In the case of `CC(C)Cn1c(CNC(=O)OC(C)(C)C)c(-c2ccccc2)c2cc(-c3nc(C(=O)O)cs3)ccc2c1=O`, the melting point was 213 to 214 °C.

`O=c1ccoc(C=Cc2ccc(O)cc2)c1` gave a melting point of 198 to 201 °C.

With `CON(C)Cc1nc2c(N)nc(C)c(C)c2n1CC(C)C`, the melting point lay in the range of 132 to 134 °C.

In the case of `CC(C)NC(=O)c1cc(-n2c(=O)cc(C(F)(F)F)n(C)c2=O)c(F)cc1Cl`, the melting point is 146 to 149 °C.

As for `CCCCCCc1cc2c(s1)NC(=O)C(C)N=C2c1ccccc1C` (configuration not stated), the melting point was 173 to 175 °C.

`O=C(O)CCn1c(=O)n(CCCCN2CCC(OC(c3ccccc3)c3ccccc3)CC2)c(=O)c2ccccc21` gave a melting point of 110 to 112 °C.

In turn, `Cc1noc(NS(=O)(=O)c2cc(-c3ccccc3)cs2)c1Br` came in with a melting point of 108 to 110 °C.

For `COC(=O)CCCCCCCCOC1OC(CO)C(O)C(OC2OC(CO)C(O)C(O)C2O)C1OC1OC(C)C(O)C(O)C1O` (configuration not stated), the melting point fell in the range of 147 to 150 °C.

On to `C#Cc1ccc(C(=O)NCC(N)C(c2ccccc2)(c2ccccc2)c2ccccc2)cc1` (configuration not stated), for which the melting point lay within 50 to 51 °C.

Molecule `COc1cc(NC2CCCCC2)c2ccccc2c1OC(C)=O` registered a melting point of 134 to 136 °C.

As for `CC(=O)OCc1nc([N+](=O)[O-])cn1C`, the melting point was 93 to 95 °C.

`CC1(CCCN2CC[C@H](CNC(=O)c3cc(Cl)c(N)c4c3OCC4)[C@H](O)C2)OCCO1` (relative stereo) showed a melting point of 118 °C.

Turning to `Brc1ccc2cc(SN3CCN(c4ccncc4)CC3)ccc2c1`, the melting point was in the range of 200 to 202 °C.

Molecule `Cn1cncc1C(O)c1ccc2[nH]c(=O)cc(-c3cccc(Cl)c3)c2c1` (configuration not stated) displayed a melting point of 186 °C.

`CCCC(=O)Nc1ccc(CCn2c(=O)n(CCC)c(=O)c3[nH]c(C4CCCC4)nc32)cc1` yielded a melting point of over 270 °C.

The molecule `Cc1cc(F)cc(C=O)c1O` returned a melting point of 49 to 52 °C.

On to `O=[N+]([O-])c1ccc(S(=O)(=O)C2COCC2Br)cc1` (configuration not stated), for which the melting point fell in the range of 155 to 157 °C.

As for `C=CC1=C(C(=O)O)C(C(F)(F)F)Oc2ccc(Cl)cc21` (configuration not stated), the melting point lay within 143 to 145 °C.

For `CCCCc1oc2ccccc2c1C(=O)NCc1ccc2cc(OCC(=O)OC)ccc2c1`, the melting point lay within 142 to 143 °C.

On to `CC(=O)OC1CCC2(C)C(=CC(=NO)C3C2CCC2(C)C(OC(C)=O)CCC32)C1` (configuration not stated), for which the melting point was 236 to 238 °C.

Take `CCc1ccc(-c2nc(Cl)c3ccccc3n2)cc1`: the melting point was 75.5 to 76.5 °C.

Consider `COc1cccc(CCS(=O)c2nc3cnccc3[nH]2)c1` (configuration not stated), for which the melting point lay within 125 to 128 °C.

Consider `NC(=O)N1CCC(c2nn(-c3ccc(F)cc3)c3ccccc23)CC1`, for which the melting point was in the range of 145 to 147 °C.

Turning to `O=S(=O)(c1ccc(F)c(C(F)(F)F)c1)N1CCC(Nc2nc(Nc3cccc(C(F)(F)F)c3)nc(OCC(F)(F)F)n2)CC1`, the melting point is 250 to 252 °C.

The molecule `COC1C(=O)NC=C1Cl` (configuration not stated) showed a melting point of 96 to 98 °C.

The molecule `Cc1cccc(-c2[nH]c(C(C)(C)C)nc2-c2ccnc(-c3ccc(CN(C)C)cc3)c2)n1` registered a melting point of 187 °C.

On to `O=[N+]([O-])c1cn2c(n1)OC[C@@H](OCc1ncc(Br)cn1)C2`, for which the melting point was over 290 °C.

Take `CCOC(=O)N1CCC(O)(c2cccs2)CC1`: the melting point is 242 °C.

The molecule `CCOC(=O)C1Cc2c([nH]c3ccccc23)C(c2ccc(N(C)C)cc2)N1` (configuration not stated) returned a melting point of 170 °C.

`COC(=O)C1(C(=O)OC)CN(C(=O)OC(C)(C)C)c2cc([N+](=O)[O-])c3ccccc3c21` came in with a melting point of 151 °C.

For `Cc1cc2nn(C)c(=O)n2nc1-c1cccc([N+](=O)[O-])c1`, the melting point lay in the range of 250 to 253 °C.

`Cn1c([N+](=O)[O-])cnc1-c1nc2ccccc2c(=O)[nH]1` came in with a melting point of 256 to 260 °C.

`COCC1CN(c2ccc(C3CCC(OC(=O)c4ccccc4)CC3)cc2)C(=O)O1` (racemic) yielded a melting point of 104 to 105 °C.

As to `c1ccc(COc2cccc(CSc3nc4cnccc4[nH]3)c2)cc1`, the melting point lay in the range of 161 to 164 °C.

As for `CCN(CC)c1ccc(C(=O)c2ccccc2)c(O)c1`, the melting point was 46 to 48 °C.

On to `CC(C)N(C)c1cccc([N+](=O)[O-])c1C#N`, for which the melting point lay within 70 to 72 °C.

With `CCOc1ncnc(C(F)(F)F)c1CS(=O)(=O)C1=NOC(C)(CCl)C1` (configuration not stated), the melting point fell in the range of 76 to 78 °C.

As to `O=C(NC1(C2CC2)CC1)c1c(NC(=O)c2cc(C(F)(F)F)nn2-c2ncccc2Cl)ccc2cn[nH]c12`, the melting point was in the range of 224 to 227 °C.

`CCOC(=O)c1c(C)ccnc1Sc1nc(C)c(CC(=O)O)s1` came in with a melting point of 164 to 166 °C.

The molecule `COc1cc(C(=O)NNC(=O)c2occ(-c3ccccc3)c2-c2ccccc2)ccc1O` registered a melting point of 216 to 220 °C.

The molecule `CCOc1ccc(NN=C2CCC(C)n3c2ncc(C(=O)O)c3=O)cc1` (configuration not stated) displayed a melting point of 218 to 219 °C.

In the case of `CC(O)(CSc1ccc(F)cc1)C(=O)O` (configuration not stated), the melting point was 73 to 75 °C.

`O=C(C(=O)c1ccc(Oc2cccc(Br)c2)cc1)c1ccccc1` registered a melting point of 75 to 76 °C.

In turn, `Cc1cc(-c2c3ccccc3c(Br)c3sc(C)c(C)c23)cc(C)c1OS(=O)(=O)c1ccc(C(=O)OC(C)(C)C)c(O)c1` yielded a melting point of 168 to 172 °C.

With `COC(=O)Cc1cc(O)c(C(C)(C)C)cc1C`, the melting point lay in the range of 100 to 102 °C.

Take `O=C(O)CCc1ccc(CCNS(=O)(=O)c2ccccc2)cc1`: the melting point was in the range of 102 to 103 °C.

On to `CCOC(=O)C1Cc2c([nH]c3cccc(C#N)c23)CN1` (configuration not stated), for which the melting point is 248 °C.

Regarding `Cc1cnn(-c2ccc(C(=O)N3Cc4cccn4Cc4ccccc43)c(Cl)n2)c1`, the melting point lay in the range of 155 to 156 °C.

The molecule `COc1cc(N)ccc1OCCCN1CCN(c2ccccc2)CC1` displayed a melting point of 112 to 113 °C.

As to `COc1ccc(-n2cnc3ccc(-c4nnc(SCc5cccc(C#N)c5)o4)cc32)cc1`, the melting point fell in the range of 157 to 158 °C.

Consider `Cn1c(-c2ccccc2)cc(O)c(C(=O)c2ccccc2)c1=O`, for which the melting point lay within 149 to 151 °C.

With `CC(CC#N)Nc1cc(Oc2ccc(S(=O)(=O)C(C)C)cc2Cl)ccc1[N+](=O)[O-]` (configuration not stated), the melting point stood at 132 °C.

`Cc1sc(N)c(C(=O)c2ccccc2)c1C` showed a melting point of 140 to 141 °C.

Take `Cc1ccc(-c2c(C(=O)O)oc(=O)c3cnccc23)cc1`: the melting point fell in the range of 254 to 256 °C.

Consider `CCS(=O)c1nc(N2CCNCC2)c2sc3nc(-c4ccccc4)cc(C)c3c2n1` (configuration not stated), for which the melting point was in the range of 165 to 170 °C.

Turning to `CCCc1c(OCCCOc2ccc(Sc3ccccc3CC(=O)O)cc2)ccc(C(C)=O)c1O`, the melting point is 123 to 124 °C.
